Laboratory results as given in ChEMBL document CHEMBL1201862, “PubChem BioAssay data set” (2004).
Calls of active or inactive are those of the source. No stated cut-off is given here; in the data, actives have a measured IC50 and inactives only a lower limit.

Target: T1, Sentrin-specific protease 6 (Homo sapiens, UniProt Q9GZR1)
T1 sequence (Q9GZR1 whole entry): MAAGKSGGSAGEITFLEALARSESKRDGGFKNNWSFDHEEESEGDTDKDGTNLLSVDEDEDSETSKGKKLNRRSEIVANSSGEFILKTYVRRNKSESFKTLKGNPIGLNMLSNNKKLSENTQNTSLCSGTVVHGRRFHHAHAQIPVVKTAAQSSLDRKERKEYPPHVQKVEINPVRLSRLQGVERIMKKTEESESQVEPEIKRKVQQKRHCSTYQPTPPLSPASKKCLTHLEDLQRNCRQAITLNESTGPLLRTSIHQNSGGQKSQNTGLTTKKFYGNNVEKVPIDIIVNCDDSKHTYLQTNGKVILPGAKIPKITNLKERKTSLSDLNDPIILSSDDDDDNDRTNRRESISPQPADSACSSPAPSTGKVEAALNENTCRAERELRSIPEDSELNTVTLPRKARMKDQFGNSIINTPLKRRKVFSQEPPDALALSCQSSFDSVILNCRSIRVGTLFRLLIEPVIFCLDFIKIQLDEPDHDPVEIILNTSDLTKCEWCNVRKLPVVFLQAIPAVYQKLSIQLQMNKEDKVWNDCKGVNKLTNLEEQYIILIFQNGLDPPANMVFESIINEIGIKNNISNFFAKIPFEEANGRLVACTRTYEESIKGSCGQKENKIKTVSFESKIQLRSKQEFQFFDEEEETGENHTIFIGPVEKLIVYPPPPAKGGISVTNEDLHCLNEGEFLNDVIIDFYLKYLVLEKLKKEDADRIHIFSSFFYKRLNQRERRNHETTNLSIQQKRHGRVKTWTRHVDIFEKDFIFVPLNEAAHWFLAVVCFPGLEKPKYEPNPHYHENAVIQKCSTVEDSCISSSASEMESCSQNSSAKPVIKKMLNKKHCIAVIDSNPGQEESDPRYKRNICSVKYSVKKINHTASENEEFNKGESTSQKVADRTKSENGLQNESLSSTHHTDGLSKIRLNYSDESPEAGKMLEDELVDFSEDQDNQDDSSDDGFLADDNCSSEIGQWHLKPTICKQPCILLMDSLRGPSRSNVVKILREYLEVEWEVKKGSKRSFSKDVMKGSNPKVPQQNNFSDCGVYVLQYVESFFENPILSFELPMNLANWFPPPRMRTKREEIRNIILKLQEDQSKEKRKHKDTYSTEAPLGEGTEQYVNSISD
Assay: SAR Analysis of small molecule inhibitors of Sentrin-specific protease 6 (SENP6) using a Luminescent assay. [Related pubchem assays (depositor defined):AID2582, AID2599]
Format: functional

With `Oc1ccc(/C=N/Nc2cc(N3CCCC3)nc(N3CCCC3)n2)cc1` the IC50 was 18.1 µM (active).
